Assay results from article PMC6104039 (Nature Communications, 2018).
Several values for one entry are separate records, joined by “and”; a condition that tells them apart may be missing. Equal entries are not always repeated.

Legend:
adipose tissue = assay: Ceramide and SM species in epididymal adipose tissue; assay type: in vivo, mice
Procedure: Male C57BL6/J mice were obtained from the Animal Resources Centre in Perth (WA, Australia). Mice were housed at 22 ± 1 °C with a controlled 12:12 h light-dark cycle and had ad libitum access to water and either chow (8% calories from fat) or HFD (45% calories from fat)[66] for 4–6 weeks. […] Treatment was commenced at the same time as mice were randomised to dietary groups. The experiments were approved by the UNSW animal care and ethics committee (ACEC 15/48B), and followed guidelines issued by the National Health and Medical Research Council of Australia.
Lipids were extracted from frozen tissue samples or cells using a two-phase procedure with methyl-tert-butyl ether (MTBE)/methanol/water (10:3:2.5, v/v/v)[67]. Frozen tissue samples (~20 mg) were homogenized in 0.2 mL methanol containing 0.01% butylated hydroxytoluene (BHT), using a Precellys 24 homogenizer and Cryolys cooling unit (Bertin Technologies) with CK14 (1.4-mm ceramic) beads. The homogenates were spiked with an internal standard mixture comprising 5 nmole 19:0/19:0 phosphatidylcholine and 2 nmole each of 17:0/17:0 phosphatidylethanolamine, 17:0/17:0 phosphatidylserine, 17:0/17:0 d5-diacylglycerol, 17:0/17:0 phosphatidylglycerol, 14:0/14:0/14:0/14:0 cardiolipin, 18:1/12:0 SM, 18:1/17:0 ceramide, 18:1/12:0 glucosylceramide, 18:1/12:0 lactosylceramide, 18:1/12:0 sulfatide (all from Avanti Polar Lipids, USA), and 17:0/17:0/17:0 TAG (Cayman Chemical, USA), then transferred to 10 mL screw cap glass tubes. The homogenization tubes containing beads were then washed with another 0.3 mL methanol, and this wash was combined with the first methanol extract, after which 1.7 mL MTBE was added and the samples were sonicated in an ice-cold sonicating water bath (Thermoline Scientific, Australia) for 30 min. Phase separation was induced by addition of 417 µL of mass spectrometry-grade water followed by vortexing and centrifugation at 1000 × g for 10 min. The upper organic phase was collected into 5 mL glass tubes. The lower phase was re-extracted by adding 1 mL MTBE, 300 μL methanol, and 250 μL water. The organic phases were combined in the 5 mL glass tubes and dried under vacuum in a Savant SC210 SpeedVac (Thermo Scientific), then reconstituted in 500 μL methanol and stored at −20 °C until analysis.
Lipidomic profiling was performed on a QExactive Plus mass spectrometer with heated electrospray ionization (HESI) probe and a Dionex UltiMate 2000 LC pump (Thermo Fisher Scientific). Extracts were resolved on a 2.1 × 100 mm Waters Acquity C18 UPLC column (1.7 µm […]), using a binary gradient in which mobile phase A consisted of acetonitrile:water (60:40), 10 mM ammonium formate, 0.1% formic acid; and mobile phase B was isopropanol:acetonitrile (90:10), 10 mM ammonium formate, 0.1% formic acid[68]. The flow rate was 260 µL/min and column oven 55 °C. Data was acquired in full scan/data-dependent MS^2 mode (full scan resolution 70,000 FWHM, scan range 400–1200 m/z). The ten most abundant ions in each cycle were subjected to MS^2 using an isolation window of 1.4 m/z, collision energy 30 eV, resolution 17,500, maximum integration time 110 ms and dynamic exclusion window 10 s. An exclusion list of background ions was used based on a solvent blank. LipidSearch v4.1.30 software (ThermoFisher Scientific) was used for chromatogram alignment, peak identification and integration. Each lipid peak was manually verified for column elution time and characteristic fragment ions. Data were then exported to an Excel spreadsheet for normalisation of each lipid to its class-specific internal standard, and lipid concentrations were calculated relative to the internal standard.

[1] = system: cultured primary myotubes; assay: Ceramide content of cultured primary myotubes; assay type: cell-based, murine; conditions: 1 μM
From the text: myotubes would go a long way in making the muscle component of this work more […]
Response: We agree with the reviewer that experiments in muscle cells often allow additional mechanistic studies to be undertaken. We investigated this possibility in immortalised and primary […]
where C18:0 ceramide is by the far the dominant ceramide species, cultured muscle cells contain much higher levels of other ceramides, particularly C16:0 (see figure below). This divergence in ceramide profile between cultured myotubes and muscle tissue in vivo has been reported by other […]
C18:0 ceramide content in cultured primary myotubes by ~30% (P = 0.02), whilst having no […]
profile of skeletal muscle, CerS1 inhibition experiments with myotubes would have limited translatability to the in vivo setting.
(1 picture or pasted object on this page, not shown here)

C57BL6/J mice = assay: Food intake; conditions: mouse, in vivo
[2] = HFD + P053, individual values, raw data Fig 3l
[3] = HFD + P053, individual values, raw data Fig 3m

C[C@@](N)(CO)CCc1ccc(OCc2ccc(Cl)c(Cl)c2)cc1 [P053, (S)-2-amino-4-(4-(3,4-dichlorobenzyloxy)phenyl)-2-methylbutan-1-ol]
Ceramide 18:1/16:0 content of white adipose tissue (adipose tissue; [2]): 7.201 and 8.054 and 16.149 and 4.934 and 4.539 and 15.378 and 9.982 and 4.818 and 11.537 and 7.369
Ceramide 18:1/18:0 content of white adipose tissue (adipose tissue; [2]): 2.978 and 2.646 and 5.343 and 1.908 and 1.464 and 4.498 and 3.784 and 2.039 and 3.490 and 2.759
Ceramide 18:1/20:0 content of white adipose tissue (adipose tissue; [2]): 1.960 and 1.699 and 2.742 and 0.969 and 1.134 and 2.311 and 2.304 and 0.962 and 2.130 and 1.825
Ceramide 18:1/22:0 content of white adipose tissue (adipose tissue; [2]): 2.875 and 3.855 and 6.655 and 3.344 and 2.629 and 5.839 and 6.468 and 2.833 and 3.815 and 4.292
Ceramide 18:1/24:0 content of white adipose tissue (adipose tissue; [2]): 2.389 and 3.918 and 5.983 and 4.215 and 2.773 and 8.001 and 8.331 and 4.355 and 4.168 and 5.733
Ceramide 18:1/24:1 content of white adipose tissue (adipose tissue; [2]): 6.096 and 8.629 and 13.174 and 7.744 and 4.866 and 14.789 and 13.116 and 7.511 and 9.181 and 8.543
Ceramide 18:2/18:0 content of white adipose tissue (adipose tissue; [2]): 1.491 and 1.389 and 1.897 and 0.793 and 0.611 and 2.474 and 2.012 and 0.838 and 2.141 and 1.309
Ceramide 18:2/22:0 content of white adipose tissue (adipose tissue; [2]): 1.850 and 2.082 and 3.075 and 1.861 and 1.560 and 3.228 and 3.861 and 1.939 and 2.443 and 2.309
Ceramide 18:2/24:0 content of white adipose tissue (adipose tissue; [2]): 2.470 and 3.270 and 4.398 and 3.698 and 2.656 and 6.741 and 6.951 and 4.253 and 4.048 and 5.078
Ceramide 18:2/24:1 content of white adipose tissue (adipose tissue; [2]): 3.997 and 4.831 and 5.433 and 4.596 and 3.171 and 8.097 and 7.476 and 4.878 and 5.777 and 4.939
SM 34:1 content of white adipose tissue (adipose tissue; [3]): 138.16 and 152.76 and 183.91 and 125.06 and 78.40 and 408.02 and 164.42 and 164.75 and 189.26 and 180.12
SM 34:2 content of white adipose tissue (adipose tissue; [3]): 3.94 and 4.36 and 5.23 and 3.24 and 2.75 and 11.91 and 3.96 and 4.10 and 5.05 and 4.63
SM 36:1 content of white adipose tissue (adipose tissue; [3]): 30.80 and 33.18 and 60.02 and 24.06 and 21.10 and 82.70 and 34.64 and 35.42 and 37.81 and 37.83
SM 36:2 content of white adipose tissue (adipose tissue; [3]): 13.65 and 13.63 and 9.26 and 9.31 and 4.59 and 33.15 and 15.13 and 9.69 and 16.44 and 14.20
SM 38:1 content of white adipose tissue (adipose tissue; [3]): 14.96 and 15.80 and 25.22 and 10.28 and 10.56 and 34.10 and 16.91 and 15.85 and 15.88 and 17.49
SM 38:2 content of white adipose tissue (adipose tissue; [3]): 5.67 and 4.70 and 6.95 and 2.89 and 2.82 and 9.23 and 2.88 and 2.78 and 5.06 and 4.54
SM 40:1 content of white adipose tissue (adipose tissue; [3]): 19.38 and 29.35 and 36.60 and 23.08 and 16.71 and 83.76 and 47.96 and 37.67 and 36.07 and 44.84
SM 40:2 content of white adipose tissue (adipose tissue; [3]): 7.44 and 8.09 and 11.71 and 6.74 and 5.23 and 19.76 and 11.68 and 7.96 and 9.66 and 10.63
SM 42:1 content of white adipose tissue (adipose tissue; [3]): 8.78 and 13.45 and 15.34 and 10.58 and 7.52 and 42.80 and 18.82 and 17.05 and 15.81 and 20.73
SM 42:2 content of white adipose tissue (adipose tissue; [3]): 28.15 and 38.15 and 51.68 and 31.28 and 20.55 and 119.48 and 50.63 and 47.22 and 48.80 and 50.51
SM 42:3 content of white adipose tissue (adipose tissue; [3]): 9.88 and 12.29 and 14.77 and 10.62 and 6.46 and 36.48 and 16.98 and 13.87 and 16.08 and 14.63
C18 ceramide or SM and other ceramide or SM species in adipose tissue (adipose tissue; chow or HFD): did not significantly impact
reduction of C18:0 ceramide content [1]: ~ 30%
food intake (C57BL6/J mice): not due to any effect of P053 on food intake
